Test results from PMC8605905 (Oxidative Medicine and Cellular Longevity, 2021).
pEC50: −log10 of the molar value. Where two headings read alike, the source gives them in different places.

Tests used:
[1] = molecular target: T1, ΔK280 tauRD protein (Homo sapiens, UniProt P10636, DEL597-597); assay: Thioflavin T assay of ΔK280 tauRD aggregation; format: biochemical
T1 construct: E. coli-derived ΔK280 tauRD protein; made in house; host or cells: E. coli
Procedure: The potential of Congo red and coumarin-chalcone derivatives in inhibiting tau misfolding was assessed using the E. coli-derived ΔK280 tauRD protein [21]. In brief, ΔK280 tauRD protein (20 μM) was incubated with the tested compound (1−10 μM) in buffer (150 mM NaCl, 20 mM Tris-HCl (pH 8.0)) at 37°C for 48 h to form aggregates. Thioflavin T (5 μM) was then added, and the mixture was incubated at room temperature for 25 min. The fluorescence intensity of the samples was measured, and the EC50 was computed as described.

[2] = tested on: ∆K280 tauRD-DsRed SH-SY5Y cells; assay: High content analysis of neurite outgrowth in ΔK280 tauRD-DsRed cells; format: cell-based, Human; conditions: 10 μM
Procedure: On day 1, Aβ-GFP or ∆K280 tauRD-DsRed SH-SY5Y cells were plated into 24-well plates (6 × 10^4/well) followed by addition of retinoic acid. On day 2, cells were treated with coumarin-chalcone derivatives (5 or 10 μM) and with doxycycline (5 or 2 μg/ml) to induce the expression of Aβ-GFP or ∆K280 tauRD-DsRed. On day 8, 4% paraformaldehyde, 0.1% Triton X-100, and 3% BSA were used to fix, permeabilize, and block cells, respectively. Subsequently, the cells were stained with TUBB3 (neuronal class III β-tubulin) primary antibody (1 : 1000; Covance, Princeton, NJ, USA) at 4°C overnight. Goat anti-rabbit Alexa Fluor 555 secondary antibody (1 : 1000; Thermo Fisher Scientific) was then added, followed by a 3 h incubation at room temperature. Following staining nuclei with 4′,-6-diamidino-2-phenylindole (DAPI) (0.1 μg/ml; Sigma-Aldrich), the neurons were imaged by using the HCA system and analysed by using the Neurite Outgrowth Application Module (MetaXpress; Molecular Devices).
To monitor the cAMP-mediated signal transduction pathway, CRE-GFP 293 cells in 6-well plates (1 × 10^6/well) were pretreated with kinase inhibitor H-89 (LC Laboratories, Woburn, MA, USA), KN-62 (Cayman Chemical, Ann Arbor, MI, USA), U0126 (LC Laboratories), or wortmannin (LC Laboratories) (10 μM) for 4 h before forskolin or LM-021 (10 μM) addition for 5 h. GFP fluorescence/protein and total/phosphorylated PKA, CaMKII, ERK, PI3K, and CREB levels were examined. In addition, Aβ-GFP or ∆K280 tauRD-DsRed SH-SY5Y cells were treated with retinoic acid (10 μM) on day 1, followed by the addition of LM-021 (5 or 10 μM) and doxycycline (5 or 2 μg/ml) on day 2, as described. Kinase inhibitors (10 μM) were added on day 6. On day 8, the cells were collected for protein expression analysis of BDNF, BCL2 (BCL2 apoptosis regulator), and BAX (BCL2 associated X, apoptosis regulator), and total/phosphorylated PKA, CaMKII, ERK, PI3K, and CREB. Also, cells were stained with DAPI and assessed for neurite outgrowth as described above.

[3] = tested on: ∆K280 tauRD-DsRed SH-SY5Y cells; assay: Real-time PCR of tauRD-DsRed RNA; format: cell-based, Human; conditions: 10 μM
Procedure: (§1) To measure the Aβ-GFP/tauRD-DsRed RNA expression on day 8, total RNA was extracted from collected cells and reverse-transcribed to cDNA (SuperScript III reverse transcriptase; Invitrogen, Waltham, MA, USA). Real-time quantitative PCR was performed using 100 ng of cDNA and the gene-specific TaqMan fluorogenic probe PN4331348 (EGFP) or customized Assays-by-Design probe for DsRed and 4326321E (HPRT1) (StepOnePlus Real-time PCR system, Applied Biosystems, Foster City, CA, USA). The RNA expression level was calculated using the formula 2^ΔCt, ΔCT = CT (control) − CT (target), in which CT indicates the cycle threshold.

[4] = tested on: ∆K280 tauRD-DsRed SH-SY5Y cells; assay: High content analysis of ΔK280 tauRD-DsRed fluorescence; format: cell-based, Human; conditions: for pEC50: Homo sapiens, read-out: Extrapolated EC50 in inhibiting ∆K280 tauRD aggregation (DsRed fluorescence)
Procedure: Human 293-derived Flp-In-293 cells (Invitrogen, Madison, WI, USA) were cultivated in Dulbecco's modified Eagle's medium (DMEM) containing 10% foetal bovine serum (FBS) (Thermo Fisher Scientific). Human neuroblastoma SH-SY5Y-derived Aβ-GFP [23] and ∆K280 tauRD-DsRed cells were kept in DMEM/nutrient mixture F12 (DMEM/F12) containing 10% FBS, 5 μg/ml blasticidin, and 100 μg/ml hygromycin (InvivoGen, San Diego, CA, USA). Doxycycline (Sigma-Aldrich) was applied to induce the expression of Aβ-GFP (5 μg/ml doxycycline) or ∆K280 tauRD-DsRed (2 μg/ml doxycycline).
(§2) On day 1, Aβ-GFP or ∆K280 tauRD-DsRed SH-SY5Y cells were seeded into 96-well plates (2.5 × 10^4/well) and treated with retinoic acid (10 μM; Sigma-Aldrich) to prompt neuronal differentiation. […] On day 8, cells were stained with Hoechst 33342 (0.1 μg/ml; Sigma-Aldrich) for 30 min, and cell images were automatically captured at excitation/emission wavelengths of 482/[…] (GFP fluorescence) or 543/593 nm (DsRed fluorescence) using a high content analysis (HCA) system (Micro Confocal High-Content Imaging System). Image Acquisition and Analysis Software (MetaXpress) (Molecular Devices, Sunnyvale, CA, USA) was used to analyse the images. CellROX Orange (5 μM; Molecular Probes, Eugene, OR, USA) (for Aβ-GFP cells) or dichloro-dihydro-fluorescein diacetate (DCFH-DA, 10 μM; Invitrogen) (for ∆K280 tauRD-DsRed cells) was added to the cells and incubated at 37°C for 30 min. The HCA system was used to measure intracellular ROS at 531/593 nm (CellROX Orange fluorescence) or 482/536 nm (DCFH-DA fluorescence) of excitation/emission wavelengths.

[5] = tested on: caspase 1; assay: Caspase 1 activity in ΔK280 tauRD-DsRed cells; format: cell-based, Human; conditions: 10 μM, ∆K280 tauRD-DsRed cells
Procedure: (§3) Aβ-GFP or ∆K280 tauRD-DsRed SH-SY5Y cells were seeded into 6-well plates (5 × 10^5/well) and treated with retinoic acid, coumarin-chalcone derivatives, and doxycycline as previously described. On day 8, cells were collected and lysates were prepared with six freeze/thaw cycles. The supernatant was collected by centrifugation, followed by measurement of the caspase 1 activity in 50 μg aliquots of cell extract using the ICE fluorometric assay kit (BioVision, Milpitas, CA, USA). Following incubation of the mixture at 37°C for 2 h, fluorescence was measured with excitation/emission wavelengths at 400/505 nm (FLx800 fluorescence microplate reader). In addition, the collected cells were lysed by sonication. Acetylcholinesterase (AChE) activity in the supernatant was determined in 10 μg aliquots of cell extracts using the AChE activity assay kit (Sigma-Aldrich) according to the manufacture's protocol. Finally, the absorbance at 412 nm was measured using a Multiskan GO spectrophotometer (Thermo Fisher Scientific).

[6] = tested on: Acetylcholinesterase (AChE); assay: AChE activity in Aβ-GFP cells; format: cell-based; conditions: 5 μM, vs untreated cells
Procedure: as §3

[7] = molecular target: T2, Aβ42 peptide (Homo sapiens, UniProt P05067); assay: Thioflavin T assay of Aβ aggregation; format: biochemical; conditions: Aβ42 5 μM, compound 5–20 μM, 37°C 48 h; read-out: Aβ aggregation inhibition EC50 (Thioflavin T)
T2 construct: containing Aβ42 peptide (5 μM); purchased AnaSpec; host or cells: synthetic
T2 sequence (P05067 672-713 limits assumed): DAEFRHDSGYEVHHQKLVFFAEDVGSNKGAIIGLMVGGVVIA
Procedure: In brief, the tested compound (5–20 μM) was added to a buffer solution (150 mM NaCl, 20 mM Tris-HCl (pH 8.0)) containing Aβ42 peptide (5 μM) and incubated at 37°C for 48 h. Thioflavin T (10 μM) (Sigma-Aldrich) then was added, and the mixture was incubated for 5 min at room temperature. Subsequently, the fluorescence intensity was quantified at 420/485 nm of excitation/emission wavelengths using a FLx800 microplate reader (Bio-Tek, Winooski, VT, USA). EC50 was computed as described.

[8] = tested on: caspase 1; assay: Caspase 1 activity in Aβ-GFP cells; format: cell-based, Human; conditions: 5 μM, vs untreated cells
Procedure: as §3

[9] = DPPH radical-scavenging assay; conditions: compounds 10–160 μM, 100 μM DPPH, 30 min, n = 3
Procedure: Stable free radical 1,1-diphenyl-2-picrylhydrazyl (DPPH) (Sigma-Aldrich) was applied to test the potential radical-scavenging activity of the coumarin-chalcone derivatives. In brief, the compounds (10–160 μM) were added to an ethanol solution containing 100 μM DPPH. The mixture was vortexed for 15 sec, left to stand for 30 min at room temperature, and scavenging capacity was measured at a wavelength of 517 nm using a Multiskan GO microplate spectrophotometer (Thermo Fisher Scientific, Waltham, MA, USA).

[10] = physchem; format: physicochemical; conditions: aqueous buffer
Procedure: The coumarin-chalcone derivatives (E)-4-hydroxy-3-(3-(p-tolyl)acryloyl)-2H-chromen-2-one (LM-016), (E)-3-(3-(4-(dimethylamino)phenyl)acryloyl)-4-hydroxy-2H-chromen-2-one (LM-021), and (E)-3-(3-(furan-2-yl)acryloyl)-4-hydroxy-2H-chromen-2-one (LM-022) were synthesized in our laboratory as previously described and examined by using NMR spectroscopy. The LM-016, LM-021, and LM-022 stayed soluble in cell culture medium at concentrations up to 100 μM.

[11] = tested on: Aβ-GFP SH-SY5Y cells; assay: ROS assay (CellROX Orange) in Aβ-GFP cells; format: cell-based, Human; conditions: tested 1.2–5 μM
Procedure: as §2

[12] = tested on: Aβ-GFP SH-SY5Y cells; assay: High content analysis of Aβ-GFP fluorescence; format: cell-based, Human; conditions: for pEC50: Homo sapiens, read-out: EC50 in Aβ aggregation inhibition (GFP fluorescence); for Concentration significantly augmenting green fluorescence intensity (Aβ-GFP): day 8
Procedure: Human neuroblastoma SH-SY5Y-derived Aβ-GFP [23] and ∆K280 tauRD-DsRed cells were kept in DMEM/nutrient mixture F12 (DMEM/F12) containing 10% FBS, 5 μg/ml blasticidin, and 100 μg/ml hygromycin (InvivoGen, San Diego, CA, USA). Doxycycline (Sigma-Aldrich) was applied to induce the expression of Aβ-GFP (5 μg/ml doxycycline) or ∆K280 tauRD-DsRed (2 μg/ml doxycycline).
On day 1, Aβ-GFP or ∆K280 tauRD-DsRed SH-SY5Y cells were seeded into 96-well plates (2.5 × 10^4/well) and treated with retinoic acid (10 μM; Sigma-Aldrich) to prompt neuronal differentiation. […] Image Acquisition and Analysis Software (MetaXpress) (Molecular Devices, Sunnyvale, CA, USA) was used to analyse the images. CellROX Orange (5 μM; Molecular Probes, Eugene, OR, USA) (for Aβ-GFP cells) or dichloro-dihydro-fluorescein diacetate (DCFH-DA, 10 μM; Invitrogen) (for ∆K280 tauRD-DsRed cells) was added to the cells and incubated at 37°C for 30 min.

[13] = tested on: Aβ-GFP SH-SY5Y cells; assay: Real-time PCR of Aβ-GFP RNA; format: cell-based, Human; conditions: 5 μM
Procedure: as §1

[14] = ∆K280 tauRD-DsRed SH-SY5Y cells, tested 2.5–10 μM

T1 sequence (P10636 with tags, fused parts or gaps DEL597-597): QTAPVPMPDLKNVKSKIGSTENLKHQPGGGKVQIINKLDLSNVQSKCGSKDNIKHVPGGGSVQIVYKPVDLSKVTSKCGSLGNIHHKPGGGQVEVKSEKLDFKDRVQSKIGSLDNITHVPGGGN

With `Nc1c(/N=N/c2ccc(-c3ccc(/N=N/c4cc(S(=O)(=O)O)c5ccccc5c4N)cc3)cc2)cc(S(=O)(=O)O)c2ccccc12` [Congo red, reference compound] the pEC50 [1] was 5.00, the “Neurite length and branches” value [2] was “successfully ameliorated” and the “∆K280 tauRD-DsRed RNA level” value [3] was “did not significantly alter”. The pEC50 [4, 14] was 4.24, the “Concentration significantly elevating DsRed fluorescence intensity” value ([4]; tested 2.5–10 μM, day 8) was 10 µM and the “Caspase 1 activity” value [5] was “lowered caspase 1 activity”.
With `Cc1ccc(/C=C/C(=O)c2c(O)c3ccccc3oc2=O)cc1` [LM-016, (E)-4-hydroxy-3-(3-(p-tolyl)acryloyl)-2H-chromen-2-one] the AChE activity [6] was “reduced”, the pEC50 [7] was 4.82 and the “Caspase 1 activity” value [8] was “reduced”. The pEC50 [9] was 3.90, the solubility ([10]; cell culture medium, read-out: Concentration up to which the compound stayed soluble) was ≥ 100 µM and the “Concentration effectively decreasing ROS levels caused by Aβ overexpression” value [11] was 2.5 to 5 µM. For the same molecule, the pEC50 ([12]; SH-SY5Y) was 5.15, the “Concentration significantly augmenting green fluorescence intensity (Aβ-GFP)” value ([12]; tested 1.2–5 μM) was 2.5 to 5 µM and the pEC50 ([4]; SH-SY5Y) was 4.15. The “Aβ-GFP RNA levels” value [13] was “did not significantly modify”.
With `O=C(/C=C/c1ccco1)c1c(O)c2ccccc2oc1=O` [LM-022, (E)-3-(3-(furan-2-yl)acryloyl)-4-hydroxy-2H-chromen-2-one] the pEC50 [7] was 4.74, the pEC50 [9] was 3.84 and the solubility [10] was ≥ 100 µM. For the same molecule, the “Concentration effectively decreasing ROS levels caused by Aβ overexpression” value [11] was 2.5 to 5 µM, the pEC50 ([12]; Aβ-GFP SH-SY5Y cells, tested 1.2–5 μM) was 5.09 and the “Concentration significantly augmenting green fluorescence intensity (Aβ-GFP)” value ([12]; tested 1.2–5 μM) was 2.5 to 5 µM. The pEC50 [4, 14] was 4.14 and the “Aβ-GFP RNA levels” value [13] was “did not significantly modify”.
